These results are taken from patent US20060281680A1, “Methods and compositions for modulating vascular integrity” (GENENTECH, INC., priority 2005, published 2006).

Holding throughout (type): cell-based, human
The subject of one data set is Cox-2, E-selectin, TF. Put plainly: Real-time RT-PCR of inflammatory marker / VEGF target genes in HUVECs. Particulars: activated endothelial cells, 4 hours of incubation. An excerpt:
(§1) Cells and cell assays. Primary human endothelial cells were purchased from Clonetics (Santa Rosa, Calif.) and cultured according to the manufacturer's instructions. For gene calling experiments, human umbilical vein endothelial cells (HUVECs) were purchased from Clonetics (BioWhittaker, Walkersville, Md.) and maintained in endothelial growth medium (EBM-2) complemented with 5% fetal calf serum (FCS) following the manufacturer's instructions. Cells (1×107) were split at a cell density of 19 000 cell/cm2 and triplicate experiments for each condition were run in parallel. Twenty-four hours after plating the cells, cell were washed 3 times with phosphate-buffered saline (PBS) and media (Clonetics) containing either 0.1% bovine serum albumin (BSA) or 0.1% BSA plus VEGF (30 ng/mL) or 5% FCS. RNA isolation and reverse transcription-PCR (RT-PCR) analysis was performed as described.^21 For cell culture experiments, the following conditions were used: human (h) VEGF, 30 ng/mL; hTNF-α, 10 ng/mL; PMA, 200 ng/mL (Calbiochem, LaJolla, Calif.); CsA, 1 μM (Calbiochem); IO 5 μM (Sigma, St Louis, Mo.); thapsigargin, 50 nM (Sigma). In one instance inhibiting (si) RNAs were generated by Dharmacon (Lafayette, Colo.) based on the full-length cDNAs of the respective gene and using the “Smart-pool” service (Dharmacon, Lafayette, Colo.). For adenoviral transduction survival experiments, human umbilical vein endothelial cells (HUVECs) were maintained in endothelial growth medium (EBM-2) complemented with 5% FCS following the manufacturer's instructions. 3×10^5 cells were split per well of a 6 well plate (Primaria, BD Biosciences, Bedford, Mass.) and duplicate experiments for each condition were run in parallel. Cells were infected with adenovirus (MOI=100) encoding for a gD peptide (Ad-Control), DSCR1 (Ad-DSCR1) or an antisense construct with the coding sequence inverted (Ad-DSCR1-AS) for 2 h in serum free media containing 10 mM […] and 10 nM MgCl2 on a vertical shaker at room temperature. Thereafter, 5 times the volume of regular growth medium containing 5% FCS was added and cells were kept for 1 day in a CO2 incubator. Thereafter, cells were washed three times with PBS and basal media (Clonetics, Santa Rosa, Calif.) containing 0.1 % BSA was added and PMA/IO, H202, and ZVAD as indicated. 24 hours after serum starvation and dosing, cell were counted on a Coulter brand style cell counter. For cell culture experiments, the following conditions were used: PMA: 200 ng/ml (Calbiochem, LaJolla, Calif.), Ionomycine: 5 μM (Sigma, St. Louis, Mo.), a 3% H202 solution was diluted 1:300 in basal media, 0.1% BSA to result in a 0.01% H202 solution, ZVAD 5 μM.

Data set [1] relates to DSCR1. Put plainly: Western blot of DSCR1 protein in whole cell extracts of HUVECs. Particulars: 6 hours of stimulation. How it is done:
(§2) Cells cultured in 10-cm dishes were washed twice in Tris (tris(hydroxymethyl)aminomethane)-buffered saline, and 0.6 mL RIPA buffer (10 mM PBS, 1% Nonidet P-40, 0.5% sodium deoxycholate, 0.1% sodium dodecyl sulfate [SDS], […] phenylmethylsulfonyl fluoride, 30 μg/mL aprotinin, 1 mM sodium orthovanadate), and protease inhibitors (Roche Pharmaceuticals, Gaithersburg, Md.) were added. Mouse monoclonal antibody (mAb) directed against human NFATc 1, c2, and c3 was purchased from Santa Cruz Biotechnology (Santa Cruz, Calif.). Affinity-purified goat polyclonal antibody against human E-selectin, vascular cell adhesion molecule-1 (VCAM-1), intercellular adhesion molecule-1 (ICAM-1), and Cox-2 was from BD Pharmingen. Total endothelial cell extract, polyacrylamide gel electrophoresis (PAGE), blotting, and immunodetection were performed according to the Santa Cruz Biotechnology protocol. A total of […] whole-cell extract was loaded on each lane of a 4% to 16% polyacrylamide gel. The enhanced chemiluminescence (ECL) reaction kit was purchased from Amersham Pharmacia Biotech (Piscataway, N.J.), and horseradish peroxidase streptavidin from Vector Laboratories (Burlingame, Calif.) was used. For NFATc1 experiments, equal amounts of cell extract were loaded to visualize NFATc1 (mAb 7A6; 1:500; Santa Cruz Biotechnology) and the loading control α-tubulin (mAb from ICN, Santa Ana, Calif.; 1:5000). For Cox-2 and TF immunoblot analysis equal amounts of cell lysate were loaded on a 6% to 12% gradient SDS-PAGE. Cox-2 was analyzed with an anti-Cox2 mAb (RDI, 1:500) and TF with an anti-hTF mAb (clone 7G11) was generated at Genentech, and used at a 1:500 dilution. Before loading the samples on the gel, the protein amounts were quantified and adjusted accordingly. As loading control, an anti-γ-adaptin mAb was used (1:1000) on a 4% to 20% polyacrylamide gel.
DSCR1 was PCR amplified with primers DSCR1-EcoRI-Pro 5′, adding an extra proline and DSCR1-Stop-XhoI 3′, by using DSCR1 cDNA as a template and cloned into pGEX-KG. GST-DSCR1 was expressed and purified essentially as described previously.^23 Polyclonal rabbit anti-GST-DSCR1 was prepared by immunization with recombinant GST-DSCR1. Filtered crude serum was used for Western blots (1:400).
On the technique in general: In western blotting, separated proteins are transferred to a membrane and probed.

In data set [2] the test system is DSCR1. Put plainly: DSCR1 expression analysis by real-time RT-PCR (TaqMan) in HUVECs. Particulars: for DSCR1 mRNA levels: HUVECs, after 5.5 hours; for DSCR1 expression levels (real-time RT-PCR): serum-starved HUVECs, over 36 hours.
Source text: as §1
For orientation: Quantitative PCR measures a nucleic acid by following its amplification.

The test system of a further data set is NFAT. Nature of the data set: NFAT luciferase reporter gene assay in endothelial cells. How it is done:
For HUVEC and human microvascular endothelial cell (HMVECs) transient transfections, cells (7.5×104) were plated per well of a 6-well dish in 3 mL growth medium (Primaria; BD Biosciences, Bedford, Mass.). The amounts of plasmid DNA used in the lipofection mixture were calculated for transfection of the total of 3 wells. Then, 1.25 μg expression vector, 3.75 μg luciferase reporter, and 2.0 μg SV-Renilla reference reporters were mixed and 14 μL F1 lipofectin reagent (Targeting Systems, Santee, Calif.) was added. Then, 4.5 mL high-glucose Dulbecco modified Eagle medium (DMEM) was added to the mixture. Transient transfection was conducted as recommended by the manufacturer. For reporter gene expression experiments, cells were lysed by using the Dual Luciferase Reporter Kit (Promega, San Luis Obispo, Calif.) in 300 μL of 1×passive lysis buffer following the recommendations of the manufacturer.
For transient transfection experiments including siRNA, HUVECs were plated in 6-well plates as described for transient transfection experiments. For 6 replicas, 600 pmol siRNA (Dharmacon, Lafayette, Colo.), 7.5 μg luciferase, and 4 μg Renilla reporter construct were mixed in 6 mL high-glucose DMEM. For FACS and immunohistochemical (IHC) experiments, 11.5 μg enhanced green fluorescent protein (EGFP) plasmid was added instead of the luciferase plasmid. […]

Data set [3] has as its system TF, VCAM-1, E-selectin, ICAM-1. Put plainly: FACS analysis of inflammatory markers on GFP+ siRNA-transfected HUVECs. How it is done:
For transient transfection experiments including siRNA, HUVECs were plated in 6-well plates as described for transient transfection experiments. For 6 replicas, 600 pmol siRNA (Dharmacon, Lafayette, Colo.), 7.5 μg luciferase, and 4 μg Renilla reporter construct were mixed in 6 mL high-glucose DMEM. For FACS and immunohistochemical (IHC) experiments, 11.5 μg enhanced green fluorescent protein (EGFP) plasmid was added instead of the luciferase plasmid. Prior to incubation at 37° C. for 25 to 30 minutes, 30 μL Targefect solution A and 60 μL Targefect solution B (Targeting Systems) were added to the mixture; 1 mL of this solution was used for lipofection as described. Cells were washed twice with PBS prior to addition of serum-free medium and dosing for the indicated amount of time.
For orientation: A flow cytometer gives signals particle by particle.

The subject of data set [4] is DSCR1. Put plainly: Western blot of DSCR1 after siRNA transfection of HUVECs. How it is done: as §2, with “The enhanced chemiluminescence (ECL) reaction kit was purchased from Amersham Pharmacia Biotech (Piscataway, N.J.), and horseradish peroxidase streptavidin from Vector Laboratories (Burlingame, Calif.) was used. For NFATc1 experiments, equal amounts of cell extract were loaded to visualize NFATc1 (mAb 7A6; 1:500; Santa Cruz Biotechnology) and the loading control α-tubulin (mAb from ICN, Santa Ana, Calif.; 1:5000). For Cox-2 and TF immunoblot analysis equal amounts of cell lysate were loaded on a 6% to 12% gradient SDS-PAGE.” left out, “As loading control, an anti-γ-adaptin mAb was used (1:1000) on a 4% to 20% polyacrylamide gel.” left out

The subject of data set [5] is DSCR1. Put plainly: DSCR1 expression by real-time RT-PCR in HPAECs, HMVECs and HUAECs. Particulars: HMVECs, HUAECs. The source says:
Cells and cell assays. Primary human endothelial cells were purchased from Clonetics (Santa Rosa, Calif.) and cultured according to the manufacturer's instructions. For gene calling experiments, human umbilical vein endothelial cells (HUVECs) were purchased from Clonetics (BioWhittaker, Walkersville, Md.) and maintained in endothelial growth medium (EBM-2) complemented with 5% fetal calf serum (FCS) following the manufacturer's instructions. Cells (1×107) were split at a cell density of 19 000 cell/cm2 and triplicate experiments for each condition were run in parallel. Twenty-four hours after plating the cells, cell were washed 3 times with phosphate-buffered saline (PBS) and media (Clonetics) containing either 0.1% bovine serum albumin (BSA) or 0.1% BSA plus VEGF (30 ng/mL) or 5% FCS. RNA isolation and reverse transcription-PCR (RT-PCR) analysis was performed as described.^21 For cell culture experiments, the following conditions were used: human (h) VEGF, 30 ng/mL; hTNF-α, 10 ng/mL; PMA, 200 ng/mL (Calbiochem, LaJolla, Calif.); CsA, 1 μM (Calbiochem); IO 5 μM (Sigma, St Louis, Mo.); thapsigargin, 50 nM (Sigma). […] 24 hours after serum starvation and dosing, cell were counted on a Coulter brand style cell counter. […]

The mark [6] stands for this setting: GFP+ activated endothelial cells.

`C/C=C(/C)C(=O)O[C@H]1C(C)=C2[C@H]([C@@H]1OC(=O)CCCCCCC)[C@@](C)(OC(C)=O)C[C@H](OC(=O)CCC)[C@@]1(O)[C@H]2OC(=O)[C@@]1(C)O` [thapsigargin, reference compound]: in the data set with Cox-2, E-selectin, TF, the “induction of COX2, E-selectin and TF mRNA” value is given as “significant induction”. In addition, in the data set on DSCR1 [1], the DSCR1 protein levels entry was “induction of DSCR1”. Also, in the data set with DSCR1 [2], the “DSCR1 mRNA levels” value is given as “significantly increased”.

With TNF-α, the DSCR1 protein levels entry with DSCR1 [1] is listed as “unable to detect increased DSCR1 protein levels”. Besides, the “DSCR1 mRNA levels” value with DSCR1 [2] is listed as “significantly increased”.

In the case of “b-FGF: basic fibroblast growth factor, R&D Systems”, the DSCR1 protein levels result in the data set with DSCR1 [1] is reported as “no significant increase”. In the data set on DSCR1 [2], the “DSCR1 expression levels (real-time RT-PCR)” value (from here on “DSCR1 expression levels”) was “did not alter DSCR1 levels significantly”.

For the molecule ionomycine [reference compound], the “DSCR1 mRNA levels” value in the data set with DSCR1 [2] is reported as “significantly increased”.

For the molecule “siDSCR1: siRNA to DSCR1 (NM_004414): pool of four in VEGF studies, AACGUAUGACAAGGACAUCAC in PMA/IO studies (one strand only stated, further chemistry not given here)”, in the data set on NFAT (HUVECs in presence of IO/PMA), the “increase in NFAT activity relative to siControl” value is given as 2 fold. Also, the “increase in NFAT activity relative to siControl” value in the data set with NFAT (HUVECs in presence of VEGF) was 3 fold. Besides, in data set [3] (setting [6]), the ICAM-1 expression entry is recorded as “not significantly affected”; the “expression levels of TF, E-selectin and VCAM-1” value was “increase”. Moreover, in data set [3] (GFP+ endothelial cells), the “magnitude of induction of inflammatory gene expression in VEGF-stimulated versus PMA/IO-stimulated cells” value is “clearly below”. Also, the “DSCR1 protein expression from cotransfected PRKN-DSCR1-FLAG” value with DSCR1 [4] (anti-Flag Western blot) is on record as “complete absence”. The “reduction in endogenous DSCR1 levels” value with DSCR1 [4] (rabbit polyclonal antiserum Western blot) is given as 50% to 70%.

B1: VEGFR2-sel: KDR-selective VEGF mutant: VEGF D63S/G65M/L66R (protein)
chain: APMAEGGGQNHHEVVKFMDVYQRSYCHPIETLVDIFQEYPDEIEYIFKPSCVPLMRCGGCCNSEMRECVPTEESNITMQIMRIKPHQGQHIGEMSFLQHNKCECRPKKDRARQENPCGPCSERRKHLFVQDPQTCKCSCKNTDSRCKARQLELNERTCRCDKPRR
As for B1, the “DSCR1 expression (real-time RT-PCR)” value with DSCR1 [5] is “increased levels of DSCR1 expression”. Moreover, the “DSCR1 expression levels” value in the data set with DSCR1 [2] was “equally potent to VEGF”.

B2: VEGFR1-sel: Flt-selective VEGF mutant I43A/I46A/Q79A/I83 (protein)
chain: APMAEGGGQNHHEVVKFMDVYQRSYCHPIETLVDIFQEYPDEAEYAFKPSCVPLMRCGGCCNDEGLECVPTEESNITMAIMRIKPHQGQHIGEMSFLQHNKCECRPKKDRARQENPCGPCSERRKHLFVQDPQTCKCSCKNTDSRCKARQLELNERTCRCDKPRR
Turning to B2, the “DSCR1 expression levels” value in the data set on DSCR1 [2] is “failed to induce alterations in DSCR1 expression”.

B3: PlGF: VEGFR-1 selective ligand (protein, UniProt P49763 19-221, looked up)
Placenta growth factor: LPAVPPQQWALSAGNGSSEVEVVPFQEVWGRSYCRALERLVDVVSEYPSEVEHMFSPSCVSLLRCTGCCGDENLHCVPVETANVTMQLLKIRSGDRPSYVELTFSQHVRCECRHSPGRQSPDMPGDFRADAPSFLPPRRSLPMLFRMEWGCALTGSQSAVWPSSPVPEEIPRMHPGRNGKKQQRKPLREKMKPERCGDAVPRR
Consider B3, for which the “DSCR1 expression levels” value with DSCR1 [2] is reported as “failed to induce alterations in DSCR1 expression”.
